Assay results as given in patent US20180258180A1, “COMBINATION THERAPY INVOLVING ANTIBODIES AGAINST CLAUDIN 18.2 FOR TREATMENT OF CANCER” (Ganymed Pharmaceuticals AG, priority 2012, published 2018).

Key:
CLDN18.2 = CLDN18.2 (Homo sapiens, UniProt P56856); test: IMAB362 binding to first extracellular domain of CLDN18.2
[1] = system: CLDN18.2-positive cancer cell lines; test: IMAB362 treatment of mice bearing CLDN18.2-positive cancer cell lines; assay type: in vivo
[2] = Phase I clinical study, single intravenous administration; assay type: in vivo, human
Text: IMAB362 is in early clinical testing. A phase I clinical study has been conducted in human. […] In an ongoing phase IIa clinical study IMAB362 is given repetitively.

[3] = system: NUGC-4 gastric cancer cells; test: IMAB362-mediated ADCC on chemotherapy pretreated NUGC-4 cells; assay type: cell-based, human; settings: NUGC-4 pretreated with 5-FU+OX, EOF or FLO for 96 hours
Method: IMAB362-mediated ADCC was investigated using NUGC-4 gastric cancer cells as target, which were either pretreated with 10 ng/ml 5-FU and 500 ng/ml oxaliplatin (5-FU+OX), 10 ng/ml epirubicin, 500 ng/ml oxaliplatin and 10 ng/ml 5-FU (EOF) or 10 ng/ml 5-FU, 50 ng/ml folinic acid and 500 ng/ml oxaliplatin (FLO) for 96 hours (effector:target ratio 40:1) or untreated. EC50 values were obtained from 7 healthy donors for untreated and EOF, FLO or 5-FU+OX pretreated NUGC-4 cells.

[4] = system: NUGC-4 cells expressing CLDN18.2; test: IMAB362 ADCC with ZA/IL-2 cultivated PBMCs on NUGC-4 cells (luciferase); assay type: cell-based, human; settings: PBMCs cultivated 14 days with ZA/IL-2, NUGC-4 targets
Method: Specific killing was determined in luciferase assays; cf. FIG. 14a. […] NUGC-4 served as target cells.

In the case of “IMAB362: chimeric IgG1 antibody directed against CLDN18.2, developed by Ganymed Pharmaceuticals AG”, the “recognition of the first extracellular domain (ECD1) of CLDN18.2” value (CLDN18.2) is reported as “high affinity and specificity”, the “mice showing regression of their tumor” value [1] is reported as “up to 40%” and the survival [1] is reported as “survival benefit”. The measured tumor markers ([2]; in one patient, within 4 weeks after treatment) was “decreased significantly”, the tolerability in patients ([2]; single i.v. administration, 33-1000 mg/m^2, observed for 28 days) was “very well tolerated” and the “maximal lysis in IMAB362-mediated ADCC, pretreated versus untreated target cells” value [3] was “higher maximal lysis”. For the same substance, the “EC50 of IMAB362-mediated ADCC on pretreated cells relative to untreated cells” value ([3]; E:T 40:1, 7 donors) was “one third” and the “IMAB362-dependent ADCC activity” value [4] was “Strong”.
